From PubChem BioAssay AID328 (DTP/NCI, 2004)
Values joined by “and” are separate entries in the source; they are usually repeats but may differ in a detail not shown here. Identical values can stand only once. Inconclusive results and toxic doses are left out.

System: BDF1 mice, P388 leukemia ip, median survival T/C
Assay: NCI In Vivo Anticancer Drug Screen. Data for tumor model P388 Leukemia (intraperitoneal) in B6D2F1 (BDF1) mice
Details: endpoint: median survival time, higher = longer survival
In short: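 Vehicle-dosed animals serve as the reference; survival of compound-dosed, tumour-implanted mice is divided by it.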

[1] = dose: 50.0 mg/kg/injection, schedule: Q04DX003 (ip), vehicle: saline
[2] = dose: 100.0 mg/kg/injection, schedule: Q04DX003 (ip), vehicle: saline
[3] = dose: 200.0 mg/kg/injection, schedule: Q04DX003 (ip), vehicle: saline
[4] = dose: 50.0 mg/kg/injection, schedule: Q01DX009 (ip), vehicle: saline with Tween-80
[5] = dose: 100.0 mg/kg/injection, schedule: Q01DX009 (ip), vehicle: saline with Tween-80

For `COC1=C(N)C(=O)c2nc(-c3nc(C(=O)O)c(C)c(-c4ccc(OC)c(OC)c4O)c3N)ccc2C1=O`, the T/C (dose: 0.01 mg/kg/injection, schedule: Q01DX010 (ip), vehicle: saline) was 110 % of control, the T/C (dose: 0.02 mg/kg/injection, schedule: Q01DX009 (ip), vehicle: other) was 118 % of control and the T/C (dose: 0.03 mg/kg/injection, schedule: Q01DX009 (ip), vehicle: dioxane) was 97 % of control. The T/C (dose: 0.03 mg/kg/injection, schedule: Q01DX009 (ip), vehicle: saline) was 114 % of control, the T/C (dose: 0.04 mg/kg/injection, schedule: Q01DX009 (ip), vehicle: dioxane) was 99 % of control and 100 % of control and the T/C (dose: 0.05 mg/kg/injection, schedule: Q01DX009 (ip), vehicle: dioxane) was 114 % of control. The T/C (dose: 0.05 mg/kg/injection, schedule: Q01DX009 (ip), vehicle: saline) was 161 % of control, the T/C (dose: 0.05 mg/kg/injection, schedule: Q01DX010 (ip), vehicle: water) was 118 % of control and the T/C (dose: 0.05 mg/kg/injection, schedule: Q04DX002 (ip), vehicle: saline) was 112 % of control. For the same compound, the T/C (dose: 0.06 mg/kg/injection, schedule: Q01DX009 (ip), vehicle: dioxane) was 114 % of control, the T/C (dose: 0.1 mg/kg/injection, schedule: Q01DX009 (ip), vehicle: saline) was 152 % of control and the T/C (dose: 0.1 mg/kg/injection, schedule: Q01DX010 (ip), vehicle: saline) was 118 % of control. For the same compound, the T/C (dose: 0.1 mg/kg/injection, schedule: Q04DX003 (ip), vehicle: other) was 118 % of control, the T/C (dose: 0.13 mg/kg/injection, schedule: Q01DX009 (oral), vehicle: other) was 109 % of control and the T/C (dose: 0.2 mg/kg/injection, schedule: Q01DX001 (ip), vehicle: other) was 118 % of control. The T/C (dose: 0.2 mg/kg/injection, schedule: Q01DX010 (ip), vehicle: water) was 118 % of control, the T/C (dose: 0.2 mg/kg/injection, schedule: Q04DX002 (ip), vehicle: saline) was 114 % of control and the T/C (dose: 0.2 mg/kg/injection, schedule: Q04DX003 (ip), vehicle: other) was 118 % of control. The T/C (dose: 0.2 mg/kg/injection, schedule: Q08DX002 (ip), vehicle: other) was 118 % of control, the T/C (dose: 0.25 mg/kg/injection, schedule: Q01DX009 (oral), vehicle: other) was 109 % of control and the T/C (dose: 0.4 mg/kg/injection, schedule: Q01DX001 (ip), vehicle: other) was 118 % of control. For the same compound, the T/C (dose: 0.5 mg/kg/injection, schedule: Q01DX001 (ip), vehicle: other) was 122 % of control, the T/C (dose: 0.5 mg/kg/injection, schedule: Q01DX009 (oral), vehicle: other) was 109 % of control and the T/C (dose: 0.5 mg/kg/injection, schedule: Q03HX008 (ip), vehicle: other) was 109 % of control. For the same compound, the T/C (dose: 0.5 mg/kg/injection, schedule: Q04DX003 (ip), vehicle: other) was 116 % of control, the T/C (dose: 0.8 mg/kg/injection, schedule: Q01DX001 (ip), vehicle: other) was 113 % of control and the T/C (dose: 0.8 mg/kg/injection, schedule: Q01DX009 (ip), vehicle: saline) was 117 % of control. For the same compound, the T/C (dose: 0.8 mg/kg/injection, schedule: Q04DX003 (ip), vehicle: other) was 118 % of control, the T/C (dose: 0.8 mg/kg/injection, schedule: Q08DX002 (ip), vehicle: other) was 109 % of control and the T/C (dose: 1.0 mg/kg/injection, schedule: Q01DX001 (ip), vehicle: other) was 109 % of control. For the same compound, the T/C (dose: 1.0 mg/kg/injection, schedule: Q01DX001 (oral), vehicle: other) was 118 % of control, the T/C (dose: 1.0 mg/kg/injection, schedule: Q01DX009 (oral), vehicle: other) was 100 % of control and the T/C (dose: 1.0 mg/kg/injection, schedule: Q03HX008 (ip), vehicle: other) was 109 % of control. For the same compound, the T/C (dose: 1.0 mg/kg/injection, schedule: Q08DX002 (ip), vehicle: other) was 100 % of control, the T/C (dose: 2.0 mg/kg/injection, schedule: Q01DX001 (oral), vehicle: other) was 100 % of control and the T/C (dose: 2.0 mg/kg/injection, schedule: Q01DX009 (oral), vehicle: other) was 95 % of control. The T/C (dose: 4.0 mg/kg/injection, schedule: Q01DX001 (oral), vehicle: other) was 95 % of control, the T/C (dose: 31.2 micrograms/kg/injection, schedule: Q01DX009 (ip), vehicle: other) was 116 % of control and the T/C (dose: 62.5 micrograms/kg/injection, schedule: Q03HX016 (ip), vehicle: other) was 116 % of control. For the same compound, the T/C (dose: 62.5 micrograms/kg/injection, schedule: Q03HX024 (ip), vehicle: other) was 116 % of control, the T/C (dose: 125.0 micrograms/kg/injection, schedule: Q03HX016 (ip), vehicle: other) was 100 % of control and the T/C (dose: 125.0 micrograms/kg/injection, schedule: Q03HX024 (ip), vehicle: other) was 91 % of control. For the same compound, the T/C (dose: 250.0 micrograms/kg/injection, schedule: Q01DX009 (ip), vehicle: other) was 116 % of control and the T/C (dose: 667.0 micrograms/kg/injection, schedule: Q04DX003 (ip), vehicle: alkali diluted with saline) was 120 % of control.

In the case of `CN(C)CCCNC(CC#N)CCC#N` (configuration not stated), the T/C [1] is reported as 100 % of control, the T/C [2] is reported as 109 % of control and the T/C [3] is reported as 100 % of control.

With `COc1cc2cc(c1Cl)NC(=O)/C=C/C(C)=C/[C@H](C)[C@@H]1C[C@@](O)(NC(=O)O1)[C@H](OC)C=C/C=C(\C)C2` the T/C (dose: 1.6 micrograms/kg/injection, schedule: Q01DX009 (ip), vehicle: saline + alcohol) was 104 % of control, the T/C (dose: 3.1 micrograms/kg/injection, schedule: Q01DX009 (ip), vehicle: saline + alcohol) was 95 % of control and the T/C (dose: 6.2 micrograms/kg/injection, schedule: Q01DX009 (ip), vehicle: saline + alcohol) was 87 % of control. For the same compound, the T/C (dose: 25.0 micrograms/kg/injection, schedule: Q01DX009 (ip), vehicle: saline + alcohol) was 108 % of control, the T/C (dose: 50.0 micrograms/kg/injection, schedule: Q01DX009 (ip), vehicle: saline + alcohol) was 120 % of control and the T/C (dose: 100.0 micrograms/kg/injection, schedule: Q01DX009 (ip), vehicle: saline + alcohol) was 120 % of control. The T/C (dose: 200.0 micrograms/kg/injection, schedule: Q01DX009 (ip), vehicle: saline + alcohol) was 104 % of control.

`O=C1CN(C(=O)CN2C(=O)c3ccccc3C2=O)C2(CCCCC2)O1` was tested, and the T/C (dose: 100.0 mg/kg/injection, schedule: Q04DX003 (ip), vehicle: saline with Tween-80) was 100 % of control and the T/C (dose: 400.0 mg/kg/injection, schedule: Q04DX003 (ip), vehicle: saline with Tween-80) was 100 % of control.

In the case of `Cc1nnc(NC2=NCCO2)s1`, the T/C [1] is reported as 86 % of control, the T/C [2] is reported as 90 % of control and the T/C [3] is reported as 90 % of control.

With `O/N=C(\c1ccccc1)c1ccccn1` the T/C (dose: 12.5 mg/kg/injection, schedule: Q01DX009 (ip), vehicle: saline with Tween-80) was 96 % of control, the T/C (dose: 25.0 mg/kg/injection, schedule: Q01DX009 (ip), vehicle: saline with Tween-80) was 90 % of control and the T/C [4] was 96 % of control.

With `O=C1Nc2ccc(Br)cc2C1=Nc1ccc2c(c1)OCO2` the T/C [4] was 113 % of control, the T/C [5] was 111 % of control and the T/C (dose: 200.0 mg/kg/injection, schedule: Q01DX009 (ip), vehicle: saline with Tween-80) was 108 % of control. For the same compound, the T/C (dose: 400.0 mg/kg/injection, schedule: Q01DX009 (ip), vehicle: saline with Tween-80) was 111 % of control.

In the case of `CCCCCC(CN(C)C)C(=O)/C=C/c1cccc(O)c1` (configuration not stated), the T/C [4] is reported as 106 % of control and the T/C [5] is reported as 98 % of control.

In the case of `c1ccc(C2OC2c2ccccc2)cc1` (configuration not stated), the T/C (dose: 50.0 mg/kg/injection, schedule: Q04DX003 (ip), vehicle: Klucel (hydroxypropylcellulose) (HPC)) is reported as 89 % of control, the T/C (dose: 75.0 mg/kg/injection, schedule: Q01DX009 (ip), vehicle: Klucel (hydroxypropylcellulose) (HPC)) is reported as 90 % of control and the T/C (dose: 100.0 mg/kg/injection, schedule: Q04DX003 (ip), vehicle: Klucel (hydroxypropylcellulose) (HPC)) is reported as 89 % of control. The T/C (dose: 150.0 mg/kg/injection, schedule: Q01DX009 (ip), vehicle: Klucel (hydroxypropylcellulose) (HPC)) was 104 % of control and the T/C (dose: 300.0 mg/kg/injection, schedule: Q01DX009 (ip), vehicle: Klucel (hydroxypropylcellulose) (HPC)) was 104 % of control.

With `CCNc1ccc(/C=C2\C=Cc3ccccc32)cc1` the T/C (dose: 0.39 mg/kg/injection, schedule: Q01DX009 (ip), vehicle: Klucel (hydroxypropylcellulose) (HPC)) was 100 % of control, the T/C (dose: 0.78 mg/kg/injection, schedule: Q01DX009 (ip), vehicle: Klucel (hydroxypropylcellulose) (HPC)) was 105 % of control and the T/C (dose: 1.56 mg/kg/injection, schedule: Q01DX009 (ip), vehicle: Klucel (hydroxypropylcellulose) (HPC)) was 110 % of control. For the same compound, the T/C (dose: 3.12 mg/kg/injection, schedule: Q01DX009 (ip), vehicle: Klucel (hydroxypropylcellulose) (HPC)) was 90 % of control, the T/C (dose: 6.25 mg/kg/injection, schedule: Q01DX009 (ip), vehicle: olive oil, sesame oil, peanut oil) was 113 % of control and the T/C (dose: 12.5 mg/kg/injection, schedule: Q01DX009 (ip), vehicle: Klucel (hydroxypropylcellulose) (HPC)) was 95 % of control. The T/C (dose: 12.5 mg/kg/injection, schedule: Q01DX009 (ip), vehicle: olive oil, sesame oil, peanut oil) was 118 % of control, the T/C (dose: 25.0 mg/kg/injection, schedule: Q01DX009 (ip), vehicle: olive oil, sesame oil, peanut oil) was 118 % of control and the T/C (dose: 50.0 mg/kg/injection, schedule: Q01DX009 (ip), vehicle: olive oil, sesame oil, peanut oil) was 100 % of control.
